In patent publication US20260240202A1, “MINERAL PROTEINATES FOR USE IN ANIMAL FEEDS, AND METHODS OF MAKING THEREOF” (Cargill, Incorporated, priority 2023, published 2026):
Marks after values point to notes of the source that are not given here.

Assay: Chick Zn bioavailability trial: performance and tibia bone measures
Type: in vivo, New Hampshire×Columbian male and female chicks
Details: for Dry Bone Wt (mg/tibia) / Bone Ash (%) / Bone Ash Wt (mg/tibia) / Tibia Ash Zn Conc. (μg/g of ash): 14 d; for Dry Bone Wt (mg/tibia): right tibia
Method: New Hampshire×Columbian male and female chicks from the University of Illinois Poultry Field Laboratory were fed a nutritionally complete corn-soybean meal diet for the first 3 days post-hatching. The chicks were then switched to a Zn-deficient soy concentrate basal diet and fed this diet until 1600 h on D 7 post-hatching. After being subjected to overnight feed withdrawal, chicks were weighed, wing banded and allotted to pens so that each pen has a similar initial weight. Treatment additions were made at the expense of cornstarch. The trial diet can be seen in Table 6.
Five replicate groups of four chicks were fed one of 10 diets for 14 d (Day 8-22 post-hatch). Chicks were maintained in heated stainless-steel batteries and exposed to constant fluorescent light. The dietary treatments are listed below: • 1. Basal soy concentrate diet-Zn deficient (13-14 mg/kg Zn) • 2. As 1+3 mg/kg Zn from feed grade ZnSO4·7H2O • 3. As 1+6 mg/kg Zn from feed grade ZnSO4·7H2O • 4. As 1+9 mg/kg Zn from feed grade ZnSO4·7H2O • 5. As 1+3 mg/kg Zn from Organic Zn prototype MinPro-E75 • 6. As 1+6 mg/kg Zn from Organic Zn prototype MinPro-E75 • 7. As 1+9 mg/kg Zn from Organic Zn prototype MinPro-E75 • 8. As 1+3 mg/kg Zn from Organic Zn prototype MinPro-HSW • 9. As 1+6 mg/kg Zn from Organic Zn prototype MinPro-HSW • 10. As 1+9 mg/kg Zn from Organic Zn prototype MinPro-HSW
Chicks were weighed at the beginning and the end of the trial and weight gain calculated by subtracting the starting weight from the ending weight. Feed intakes were calculated via subtracting the feed refusals from the feed provided, with Zn intakes calculated based on Zn concentration in the diet and total feed consumed. Feed conversions were determined by using the feed consumed divided by weight gained.
Upon termination of the experiment, chicks and feeders were weighed and chicks were euthanized with CO2 gas. The right tibia from each chick was removed and pooled by replicate pen. The tibia was then autoclaved and cleaned to remove all adhering tissue, dried at 110° C. for 24 h, and then dry ashed in a muffle furnace. The ash was analyzed for Zn at the University of Missouri. Bioavailability of Zn was then determined by the slope-ratio method using multiple regression analysis. Weight gain, tibia Zn concentration and total tibia Zn were regressed on supplemental Zn intake from the Zn sources and the bioavailability of the Zn in the Zn-protein sources was calculated relative to the Zn in ZnSO4·7H2O.

O.O.O.O.O.O.O.O=S(=O)([O-])[O-].[Zn+2] [ZnSO4, ZnSO4·7H2O]
Dry Bone Wt (mg/tibia) (3 mg/kg supplemental Zn in Zn-deficient basal diet): 1012^e mg/tibia
Bone Ash (%) (3 mg/kg supplemental Zn): 42.8^bcd %
Bone Ash Wt (mg/tibia) (3 mg/kg supplemental Zn): 433^de mg/tibia
Tibia Ash Zn Conc. (μg/g of ash) (3 mg/kg supplemental Zn): 79.16^ef μg/g of ash
Dry Bone Wt (mg/tibia) (6 mg/kg supplemental Zn in Zn-deficient basal diet): 1104^bdc mg/tibia
Bone Ash (%) (6 mg/kg supplemental Zn): 43.4^abcd %
Bone Ash Wt (mg/tibia) (6 mg/kg supplemental Zn): 478^bc mg/tibia
Tibia Ash Zn Conc. (μg/g of ash) (6 mg/kg supplemental Zn): 88.98^cd μg/g of ash
Dry Bone Wt (mg/tibia) (9 mg/kg supplemental Zn in Zn-deficient basal diet): 1176^ab mg/tibia
Bone Ash (%) (9 mg/kg supplemental Zn): 43.8^ab %
Bone Ash Wt (mg/tibia) (9 mg/kg supplemental Zn): 515^ab mg/tibia
Tibia Ash Zn Conc. (μg/g of ash) (9 mg/kg supplemental Zn): 101.2^ab μg/g of ash
Feed efficiency (Zinc inclusion at 3 mg/kg and 6 mg/kg): approximately 560 g/kg of feed consumed
